Assay results taken from article PMC11887451, “Leveraging Immunogenic Cell Death to Enhance the Immune Response against Malignant Pleural Mesothelioma Tumors” (Journal of the American Chemical Society, 2025).

Tests used:
[1] = test system: murine malignant mesothelioma cell line AB12; experiment: MTT cytotoxicity assay, 72 h, AB12; type: cell-based, mouse; details: exposure time 72 h
[2] = test system: patient-derived Meso84 cell line (sarcomatoid MPM); experiment: MTT cytotoxicity assay, 72 h, Meso84; type: cell-based, human; details: exposure time 72 h
From the text: (§1) Human malignant mesothelioma cancer cell lines JU77 and LO68 were obtained from Cell Bank Australia (Children's Medical Research Institute, Westmead, Australia). Mouse malignant mesothelioma cancer cell line AB12, human nonmalignant mesothelioma cancer cell line Met5A (mesothelial cells), mouse macrophage cell line J774 and human monocytic cell line THP-1 were obtained from American Type Culture Collection (ATCC) (Rockville, MD, USA). Human malignant mesothelioma cell lines VMC23 (epithelial), Meso82 (sarcomatous), Meso92 (biphasic), were kindly provided by Prof. Walter Berger (Medical University of Vienna). All cells except for J774 were cultured in RPMI and J774 cells were cultured in DMEM. Both types of media were supplemented with 10% FBS and 1% penicillin-streptomycin (10,000 U/mL). Cells were grown in tissue culture flasks (75 cm2 and 25 cm2, SPL Life Sciences Co., Ltd., Korea). All cell lines were grown at 37 °C in a humidified atmosphere of 95% air and 5% CO 2 and passaged when they reached 80–90% confluency. All Au stock solutions were prepared in 1% DMSO in the respected medium, ensuring that cell viability was not inhibited.
(§2) The cytotoxicity of compounds was determined using an MTT colorimetric test. The cells were harvested from culture flasks by trypsinization and seeded into Cellstar 96 -well microculture plates (Greiner Bio -One) at the seeding density of 6000 cells per well (6 × 10^4 cells/mL). After
(§3) the cells were allowed to resume exponential growth for 16 h, they were exposed to drugs at
(§4) different concentrations in media for 72 h. The drugs were diluted in a complete medium at the desired concentration added to each well (100 μL) and serially diluted in other wells. After exposure for 72 h, the media was replaced with MTT in media (5 mg/mL, 100 μL/well) and
(§5) incubated for an additional 50 min. Subsequently, the medium was aspirated, and the purple formazan crystals formed in viable cells were dissolved in DMSO (100 μL/well). Optical densities were measured at 570 nm using a BioTek Synergy H1 microplate and MultiskanTM SkyHigh plate readers. The quantity of viable cells was expressed in terms of treated/control (T/C) values in comparison to untreated control cells, and 50% inhibitory concentrations (IC 50) were calculated from concentration-effect curves by interpolation. An evaluation was based on means from at least three independent experiments, each comprising three replicat es per
(§6) DMSO had not impact on the cell viability at the concentrations used.

[3] = test system: human malignant mesothelioma cell line JU77; experiment: MTT cytotoxicity assay, 72 h, JU77; type: cell-based; details: exposure time 72 h
From the text: as §1, §2, §3, §4, §5, §6

[4] = test system: patient-derived Meso92 cell line (biphasic MPM); experiment: MTT cytotoxicity assay, 72 h, Meso92; type: cell-based, human; details: exposure time 72 h
From the text: Cell lines and culture conditions
(§7) Mouse malignant mesothelioma cancer cell line AB12, human nonmalignant mesothelioma cancer cell line Met5A (mesothelial cells), mouse macrophage cell line J774 and human monocytic cell line THP-1 were obtained from American Type Culture Collection (ATCC) (Rockville, MD, USA). Human malignant mesothelioma cell lines VMC23 (epithelial), Meso82 (sarcomatous), Meso92 (biphasic), were kindly provided by Prof. Walter Berger (Medical University of Vienna). All cells except for J774 were cultured in RPMI and J774 cells were cultured in DMEM. Both types of media were supplemented with 10% FBS and 1% penicillin-streptomycin (10,000 U/mL). Cells were grown in tissue culture flasks (75 cm2 and 25 cm2, SPL Life Sciences Co., Ltd., Korea). All cell lines were grown at 37 °C in a humidified atmosphere of 95% air and 5% CO 2 and passaged when they reached 80–90% confluency. All Au stock solutions were prepared in 1% DMSO in the respected medium, ensuring that cell viability was not inhibited. The Au concentration in the stock solutions was confirmed through inductively coupled plasma optical emission spectrometry. The stock solution of pemetrexed (10 mM) was prepared in Milli -Q water.
Inhibition of c ell viability assay
as §2, §3, §4, §5

[5] = test system: patient-derived VMC23 cell line (epithelioid MPM); experiment: MTT cytotoxicity assay, 72 h, VMC23; type: cell-based, human; details: exposure time 72 h
From the text: as §1, §2, §3, §4, §5, §6

[6] = test system: human malignant mesothelioma cell line LO68; experiment: MTT cytotoxicity assay, 72 h, LO68; type: cell-based; details: exposure time 72 h
[7] = test system: human nonmalignant mesothelioma cell line Met5A; experiment: MTT cytotoxicity assay, 72 h, Met5A; type: cell-based; details: exposure time 72 h
From the text: Cell lines and culture conditions
as §7
Inhibition of c ell viability assay
as §2, §3, §4, §5

[8] = Aqueous stability by RP-HPLC in 1:1 DMSO:H2O over 72 h; type: physicochemical; details: room temperature
Experimental: The aqueous stability of the Au(III)–DTC complexes was assessed by monitoring their RP-HPLC profiles in a 1:1 DMSO:H2O mixture at room temperature over a 3-day period (Supplementary Figures 112–146).
Determination of the purity of cyclometalated Au( III) complexes was performed using analytical HPLC on a Shimadzu Prominence System equipped with a DGU -20A3 Degasser, two LC-20AD Liquid Chromatography Pump, a SPD-20A UV/Vis Detector and a Shim Pack GVP-ODS 2.0 mm 18 column ([…], 120Å, 250 mm × 4.60 mm i.d.). The analysis was conducted at r.t. with a flow rate of 1.0 mL/min and detection at 254 and 280 nm. Mobile phase A was H2O + 0.1% Trifluoroacetic acid (TFA) while mobile phase B is ACN + 0.1% TFA. The gradient program parameters were as follows: mobil e phase B was increased from 30 to 95% over 30 min. 95% mobile phase B was maintained for 10 min, 95 to 30% over 5 min, and finally returned to 30% for 10 min for the next analysis. LogP values of the complexes were calculated based on the HPLC retention times derived from the calibration standard curve. The calibration standard curve was established using 2-butanone, phenylacetonitrile, anisole, ethyl benzoate, benzophenone, diphenyl ether and triphenylamine. To conduct an aqueous stability study, the HPLC profiles of the sample stock solutions were diluted to a 1:1 ratio of DMSO to […]
water. […]

SMILES	IC50 [1]	IC50 [2]	IC50 [3]	IC50 [4]	IC50 [5]	IC50 [6]	IC50 [7]	hydrolysis over the 72-h period [8]	minor RP-HPLC peak, share of the total area after 24 h [8]	minor RP-HPLC peak, share of the total area after 72 h [8]
CC[N+](=C1[S][Au-]2([S]1)[c]1ccccc1-c1cccc[n+]12)c1ccccc1.F[P-](F)(F)(F)(F)F (stereo not shown) [1E]	840 ± 200 nM	1200 ± 100 nM	850 ± 100 nM	2000 ± 300 nM	1300 ± 200 nM	2300 ± 300 nM	690 ± 130 nM			
CC[N+](CC)=C1[S][Au-]2([S]1)[c]1ccccc1Cc1cccc[n+]12.F[P-](F)(F)(F)(F)F (stereo not shown) [2B]	300 ± 60 nM	420 ± 120 nM	3000 ± 400 nM	6200 ± 1700 nM	6600 ± 1700 nM	2200 ± 400 nM	530 ± 80 nM			
CC[N+](=C1[S][Au-]2([S]1)[c]1ccccc1Nc1cccc[n+]12)c1ccccc1.F[P-](F)(F)(F)(F)F (stereo not shown) [5E]	180 ± 10 nM	510 ± 100 nM	440 ± 130 nM	400 ± 50 nM	340 ± 40 nM	760 ± 180 nM	280 ± 80 nM			
CC[N+](CC)=C1[S][Au-]2([S]1)[c]1ccccc1C(=O)c1cccc[n+]12.F[P-](F)(F)(F)(F)F (stereo not shown) [3B]	220 ± 10 nM	1400 ± 300 nM	1200 nM	1100 ± 300 nM	7500 ± 1400 nM	930 ± 180 nM	1400 ± 100 nM			
CC[N+](CC)=C1[S][Au-]2([S]1)[c]1ccccc1-c1cccc[n+]12.F[P-](F)(F)(F)(F)F (stereo not shown) [1B]	190 ± 20 nM	85 ± 7 nM	890 ± 130 nM	690 ± 210 nM	1600 ± 300 nM	550 ± 160 nM	530 ± 70 nM			
C[N+](C)=C1[S][Au-]2([S]1)[c]1ccccc1Cc1cccc[n+]12.F[P-](F)(F)(F)(F)F (stereo not shown) [2A]	170 ± 20 nM	220 ± 60 nM	2800 ± 200 nM	260 ± 40 nM	8400 ± 1000 nM	1200 nM	430 ± 80 nM			
COC1c2cccc[c]2[Au-]2([S]C(=[N+]3CCCCCC3)[S]2)[n+]2ccccc21.F[P-](F)(F)(F)(F)F (racemic) [4G]	230 ± 60 nM	1800 ± 400 nM	2400 ± 700 nM	4800 ± 500 nM	3500 ± 700 nM	1600 ± 200 nM	2000 ± 300 nM			
CC[N+](CC)=C1[S][Au-]2([S]1)[c]1ccccc1C(OC)c1cccc[n+]12.F[P-](F)(F)(F)(F)F (racemic) [4B]	330 ± 100 nM	1700 ± 500 nM	4800 ± 700 nM	6300 ± 1000 nM	7300 ± 1800 nM	2900 ± 800 nM	430 ± 130 nM			
CC[N+](=C1[S][Au-]2([S]1)[c]1ccccc1Cc1cccc[n+]12)c1ccccc1.F[P-](F)(F)(F)(F)F (stereo not shown) [2E]	2700 ± 600 nM	1600 ± 400 nM	1600 ± 200 nM	1600 ± 200 nM	2000 ± 600 nM	2300 ± 100 nM	3000 ± 600 nM	less than 10%	4%	remained unchanged
CC[N+](=C1[S][Au-]2([S]1)[c]1ccccc1C(OC)c1cccc[n+]12)c1ccccc1.F[P-](F)(F)(F)(F)F (racemic) [4E]	1900 ± 400 nM	2300 ± 600 nM	3200 ± 300 nM	5300 ± 200 nM	4300 ± 800 nM	4500 ± 500 nM	1400 ± 300 nM	less than 10%	5%	7%
F[P-](F)(F)(F)(F)F.c1cc[c]2c(c1)-c1cccc[n+]1[Au-]21[S]C(=[N+]2CCCC2)[S]1 (stereo not shown) [1F]	200 ± 60 nM	190 ± 40 nM	1500 ± 100 nM	220 ± 60 nM	930 ± 280 nM	1700 ± 300 nM	180 ± 50 nM			
F[P-](F)(F)(F)(F)F.c1cc[c]2c(c1)Cc1cccc[n+]1[Au-]21[S]C(=[N+]2CCCC2)[S]1 (stereo not shown) [2F]	290 ± 40 nM	560 ± 100 nM	1100 ± 100 nM	1000 ± 300 nM	970 ± 260 nM	720 ± 120 nM	730 ± 120 nM	less than 10%	5%	9%
F[P-](F)(F)(F)(F)F.c1ccc(C[N+](Cc2ccccc2)=C2[S][Au-]3([S]2)[c]2ccccc2Nc2cccc[n+]23)cc1 (stereo not shown) [5D]	1100 nM	1100 ± 300 nM	520 ± 80 nM	1100 ± 200 nM	1300 ± 300 nM	950 ± 130 nM	1000 ± 200 nM			
F[P-](F)(F)(F)(F)F.O=C1c2cccc[c]2[Au-]2([S]C(=[N+]3CCCCCC3)[S]2)[n+]2ccccc21 (stereo not shown) [3G]	350 ± 70 nM	1800 ± 300 nM	1100 ± 200 nM	1800 ± 200 nM	1400 ± 200 nM	1200 ± 100 nM	1500 ± 200 nM			
C[N+](C)=C1[S][Au-]2([S]1)[c]1ccccc1-c1cccc[n+]12.F[P-](F)(F)(F)(F)F (stereo not shown) [1A]	88 ± 2 nM	1300 ± 300 nM	1100 ± 300 nM	190 ± 40 nM	630 ± 150 nM	1000 ± 300 nM	310 ± 70 nM			
COC1c2cccc[c]2[Au-]2([S]C(=[N+](C)C)[S]2)[n+]2ccccc21.F[P-](F)(F)(F)(F)F (racemic) [4A]	290 ± 40 nM	190 ± 30 nM	1400 ± 200 nM	160 ± 30 nM	4700 ± 700 nM	1300 ± 300 nM	720 ± 210 nM			
F[P-](F)(F)(F)(F)F.c1ccc(C[N+](Cc2ccccc2)=C2[S][Au-]3([S]2)[c]2ccccc2-c2cccc[n+]23)cc1 (stereo not shown) [1D]	1900 ± 200 nM	1400 ± 100 nM	760 ± 100 nM	1400 ± 300 nM	1400 ± 200 nM	1500 ± 400 nM	1300 ± 300 nM			
C[N+](C)=C1[S][Au-]2([S]1)[c]1ccccc1C(=O)c1cccc[n+]12.F[P-](F)(F)(F)(F)F (stereo not shown) [3A]	140 ± 40 nM	1200 ± 200 nM	1900 ± 500 nM	530 ± 110 nM	640 ± 60 nM	990 ± 190 nM	440 ± 130 nM			
COC1c2cccc[c]2[Au-]2([S]C(=[N+]3CCCC3)[S]2)[n+]2ccccc21.F[P-](F)(F)(F)(F)F (racemic) [4F]	320 ± 50 nM	340 ± 100 nM	3300 ± 800 nM	1700 ± 500 nM	2900 ± 300 nM	1400 ± 200 nM	740 ± 90 nM			
